IC50 data for 32 compounds are collected here from patent publication US7964594B1, “Amino oxazine derivatives” (Hoffmann-La Roche Inc., priority 2009, dated 2011).

This assay addresses T1, BACE2 (Rattus norvegicus, UniProt Q6IE75).
T1 construct: endogenous cellular BACE2 in the Ins1e rat cell line; endogenous in cells; host or cells: INS-TMEM27 (INS1e-derived rat insulinoma cell line with doxycycline-inducible full-length hTMEM27)
T1 sequence (Q6IE75 63-514): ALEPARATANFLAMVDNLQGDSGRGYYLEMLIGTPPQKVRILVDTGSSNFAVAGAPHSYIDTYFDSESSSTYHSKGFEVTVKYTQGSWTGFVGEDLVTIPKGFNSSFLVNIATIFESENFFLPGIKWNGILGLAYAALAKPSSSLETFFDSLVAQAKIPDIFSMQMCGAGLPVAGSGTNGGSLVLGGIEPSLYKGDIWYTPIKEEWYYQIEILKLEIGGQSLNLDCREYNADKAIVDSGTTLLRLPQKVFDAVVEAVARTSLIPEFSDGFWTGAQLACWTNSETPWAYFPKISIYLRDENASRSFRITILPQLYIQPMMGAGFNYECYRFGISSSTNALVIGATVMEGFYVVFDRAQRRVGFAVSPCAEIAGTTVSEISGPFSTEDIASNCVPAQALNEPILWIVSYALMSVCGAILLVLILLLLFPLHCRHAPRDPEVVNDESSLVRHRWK
The assay can be described thus: Assay for BACE inhibition by measuring cellular TMEM27 cleavage (INS-TMEM27 cells, ELISA of shed TMEM27). In kind it is cell-based. The note with it: inhibition of human TMEM27 cleavage by endogenous cellular BACE2 in Ins1e rat cell line; ELISA of culture medium. An excerpt:
Assay for BACE Inhibition by Measuring Cellular TMEM27 Cleavage
The assay uses the principle of inhibition of human TMEM27 cleavage by endogenous cellular BACE2 in the Ins1e rat cell line and shedding from the cell surface into the culture medium, followed by detection in an ELISA assay. Inhibition of BACE2 prevents the cleavage and shedding in a dose-dependent manner.
The stable cell line “INS-TMEM27” represents an INS1e-derived cell line with inducible expression (using the TetOn system) of full-length hTMEM27 in a doxycycline-dependent manner. The cells were cultured throughout the experiment in RPMI1640+Glutamax (Invitrogen) Penicillin/Streptomycin, 10% Fetal bovine serum, […], […], 100 micrograms/ml G418 and 100 microgram/ml hygromycin and were grown in adherent culture at 37° C. in a standard CO2 cell culture incubator.
INS-TMEM27 cells were seeded in 96-well plates. After 2 days in culture, BACE2 inhibitor was added in a range of concentrations as required by the assay and after a further two hours, doxycycline was added to a final concentration of 500 ng/ml. The cells were incubated for a further 46 hours and the supernatant harvested for detection of shed TMEM27.
An ELISA assay (using a pair of mouse anti-human-TMEM27 antibodies, raised against the extracellular domain of TMEM27) was used for detection of TMEM27 in the culture medium. An IC50 for BACE2 inhibition was calculated using the ELISA readout for each inhibitor concentration with standard curve-fitting software XLfit (IDBS) for the Excel spreadsheet program.
The term IC50 denotes the concentration at which inhibition is half-maximal. A low value points to higher potency. Turning to `C[C@]1(c2cc(NC(=O)c3ncc(Cl)cc3Cl)ccc2F)N=C(N)OCC12CC2` [Example 53, (S)—N-(3-(6-Amino-8-methyl-5-oxa-7-azaspiro[2.5]oct-6-en-8-yl)-4-fluorophenyl)-3,5-dichloropicolinamide], it took 6 nM to reach half-maximal inhibition (IC50).

In turn, `C[C@]1(c2cc(NC(=O)c3ncccc3Cl)ccc2F)N=C(N)OCC12CC2` [Example 48, (S)—N-(3-(6-Amino-8-methyl-5-oxa-7-azaspiro[2.5]oct-6-en-8-yl)-4-fluorophenyl)-3-chloropicolinamide] came in with an IC50 of 36 nM. In turn, `C[C@@]1(c2cc(NC(=O)c3cc4ccccc4s3)ccc2F)CCOC(N)=N1` [Example 13, Benzo[b]thiophene-2-carboxylic acid [3-((S)-2-amino-4-methyl-5,6-dihydro-4H-[1,3]oxazin-4-yl)-4-fluoro-phenyl]-amide] gave an IC50 of 52 nM.

`C[C@]1(c2cc(NC(=O)c3ccc(OC(F)F)cn3)ccc2F)N=C(N)OCC12CC2` [Example 42, 5-Difluoromethoxy-pyridine-2-carboxylic acid [3-((S)-6-amino-8-methyl-5-oxa-7-aza-Spiro[2.5]oct-6-en-8-yl)-4-fluoro-phenyl]-amide]: the IC50 came out at 210 nM. `Cc1conc1C(=O)Nc1ccc(F)c([C@]2(C)CCOC(N)=N2)c1` [Example 63]: the IC50 was 104 nM. Regarding `C[C@@]1(c2cc(NC(=O)c3ncc(Cl)cc3Cl)ccc2F)CCOC(N)=N1` [Example 1, 3,5-Dichloro-pyridine-2-carboxylic acid [3-((S)-2-amino-4-methyl-5,6-dihydro-4H-[1,3]oxazin-4-yl)-4-fluoro-phenyl]-amide], the IC50 worked out at 4 nM. On to `COc1ccc(C(=O)Nc2ccc(F)c([C@@]3(C)N=C(N)OCC34CC4)c2)nc1` [Example 39], for which the IC50 was 91 nM.

Compound `C[C@@]1(c2cc(NC(=O)CC(F)(F)F)ccc2F)CCOC(N)=N1` [Example 59, N-[3-((S)-2-Amino-4-methyl-5,6-dihydro-4H-[1,3]oxazin-4-yl)-4-fluoro-phenyl]-3,3,3-trifluoro-propionamide] showed an IC50 of 830 nM. Under `C[C@@]1(c2cc(NC(=O)c3ccc(Cl)cn3)ccc2F)CCOC(N)=N1` [Example 2, 5-Chloro-pyridine-2-carboxylic acid [3-((S)-2-amino-4-methyl-5,6-dihydro-4H-[1,3]oxazin-4-yl)-4-fluoro-phenyl]-amide] stands 10 nM. Turning to `Cc1ccc(C(=O)Nc2ccc(F)c([C@]3(C)CCOC(N)=N3)c2)nc1` [Example 15], the IC50 is 4.5 nM.

On to `Cc1ccc(C(=O)Nc2ccc(F)c([C@]3(C)CCOC(N)=N3)c2)s1` [Example 17, 5-Methyl-thiophene-2-carboxylic acid [3-((S)-2-amino-4-methyl-5,6-dihydro-4H-[1,3]oxazin-4-yl)-4-fluoro-phenyl]-amide], for which inhibition was half-maximal at 11 nM (IC50). In turn, `C[C@]1(c2cc(NC(=O)C3(C(F)(F)F)CC3)ccc2F)N=C(N)OCC12CC2` [Example 54, (S)—N-(3-(6-Amino-8-methyl-5-oxa-7-azaspiro[2.5]oct-6-en-8-yl)-4-fluorophenyl)-1-(trifluoromethyl)cyclopropanecarboxamide] came in with an IC50 of 810 nM. As for `C[C@@]1(c2cc(NC(=O)c3ccc(Cl)s3)ccc2F)CCOC(N)=N1` [Example 10, 5-Chloro-thiophene-2-carboxylic acid [3-((S)-2-amino-4-methyl-5,6-dihydro-4H-[1,3]oxazin-4-yl)-4-fluoro-phenyl]-amide], 915 nM corresponded to half-maximal inhibition (IC50). Under `Cc1nc(C(=O)Nc2ccc(F)c([C@]3(C)CCOC(N)=N3)c2)cs1` [Example 28] stands 4 nM; under `CC[C@@]1(c2cc(NC(=O)c3ccc(Cl)s3)ccc2F)CCOC(N)=N1` [Example 21], 240 nM; under `Cc1nc(C(=O)Nc2ccc(F)c([C@]3(C)CCOC(N)=N3)c2)co1` [Example 8], 19 nM. With `C[C@]1(c2cc(NC(=O)c3ncc(C(F)(F)F)cc3Cl)ccc2F)N=C(N)OCC12CC2` [Example 50, (S)—N-(3-(6-Amino-8-methyl-5-oxa-7-azaspiro[2.5]oct-6-en-8-yl)-4-fluorophenyl)-3-chloro-5-(trifluoromethyl)picolinamide], half-maximal inhibition (IC50) required 190 nM. Regarding `C[C@@]1(c2cc(NC(=O)c3cc(Cl)ccn3)ccc2F)CCOC(N)=N1` [Example 9], the IC50 stood at 143 nM. `CC[C@@]1(c2cc(NC(=O)c3ncc(Cl)cc3Cl)ccc2F)CCOC(N)=N1` [Example 22] displayed an IC50 of 7 nM. In turn, `C[C@@]1(c2cc(NC(=O)c3ccc(F)cn3)ccc2F)CCOC(N)=N1` [Example 3, 5-Fluoro-pyridine-2-carboxylic acid [3-((S)-2-amino-4-methyl-5,6-dihydro-4H-[1,3]oxazin-4-yl)-4-fluoro-phenyl]-amide] had an IC50 of 6 nM. For the compound `C[C@]1(c2cc(NC(=O)c3ncccc3C(F)(F)F)ccc2F)N=C(N)OCC12CC2` [Example 51, (S)—N-(3-(6-Amino-8-methyl-5-oxa-7-azaspiro[2.5]oct-6-en-8-yl)-4-fluorophenyl)-3-(trifluoromethyl)picolinamide], the IC50 came to 73 nM.

As to `C[C@]1(c2cc(NC(=O)c3ccc(F)cn3)ccc2F)N=C(N)OCC12CC2` [Example 40, 5-Fluoro-pyridine-2-carboxylic acid [3-((S)-6-amino-8-methyl-5-oxa-7-aza-spiro[2.5]oct-6-en-8-yl)-4-fluoro-phenyl]-amide], the midpoint of inhibition, the IC50, lay at 39 nM.

Take `C[C@]1(c2cc(NC(=O)c3ncc(F)cc3Cl)ccc2F)N=C(N)OCC12CC2` [Example 52, (S)—N-(3-(6-Amino-8-methyl-5-oxa-7-azaspiro[2.5]oct-6-en-8-yl)-4-fluorophenyl)-3-chloro-5-fluoropicolinamide]: the IC50 was found to be 16 nM. Under `C[C@@]1(c2cc(NC(=O)c3ncccc3OCC(F)(F)F)ccc2F)CCOC(N)=N1` [Example 60, (S)—N-(3-(2-Amino-4-methyl-5,6-dihydro-4H-1,3-oxazin-4-yl)-4-fluorophenyl)-3-(2,2,2-trifluoroethoxy)picolinamide] stands 143 nM. With `C[C@@]1(c2cc(NC(=O)c3n[nH]cc3Cl)ccc2F)CCOC(N)=N1` [Example 64], the IC50 was determined as 464 nM. To `C[C@@]1(c2cc(NC(=O)c3ncc(F)cc3F)ccc2F)CCOC(N)=N1` [Example 33, 3,5-Difluoro-pyridine-2-carboxylic acid [3-((S)-2-amino-4-methyl-5,6-dihydro-4H-[1,3]oxazin-4-yl)-4-fluoro-phenyl]-amide] belongs 7 nM; to `C[C@@]1(c2cc(NC(=O)c3ccc(OC(F)F)cn3)ccc2F)CCOC(N)=N1` [Example 61, 5-Difluoromethoxy-pyridine-2-carboxylic acid [3-((S)-2-amino-4-methyl-5,6-dihydro-4H-[1,3]oxazin-4-yl)-4-fluoro-phenyl]-amide], 474 nM; to `C[C@@]1(c2cc(NC(=O)c3cnc(Cl)cn3)ccc2F)CCOC(N)=N1` [Example 14], 190 nM. Under `C[C@]1(c2cc(NC(=O)c3ccccn3)ccc2F)N=C(N)OCC12CC2` [Example 43, Pyridine-2-carboxylic acid [3-((S)-6-amino-8-methyl-5-oxa-7-aza-spiro[2.5]oct-6-en-8-yl)-4-fluoro-phenyl]-amide] stands 18 nM; under `Cc1cc(Cl)cnc1C(=O)Nc1ccc(F)c([C@]2(C)CCOC(N)=N2)c1` [Example 26, 5-Chloro-3-methyl-pyridine-2-carboxylic acid [3-((S)-2-amino-4-methyl-5,6-dihydro-4H-[1,3]oxazin-4-yl)-4-fluoro-phenyl]-amide], 1 nM. `C[C@]1(c2cc(NC(=O)C3CC3(F)F)ccc2F)N=C(N)OCC12CC2` (mixture of isomers) [Example 55, N-(3-((S)-6-Amino-8-methyl-5-oxa-7-azaspiro[2.5]oct-6-en-8-yl)-4-fluorophenyl)-2,2-difluorocyclopropanecarboxamide]: the 50% inhibitory concentration (IC50) worked out at 2100 nM. Compound `C[C@]1(c2cc(NC(=O)c3ccc(C#N)cn3)ccc2F)N=C(N)OCC12CC2` [Example 41, 5-Cyano-pyridine-2-carboxylic acid [3-((S)-6-amino-8-methyl-5-oxa-7-aza-spiro[2.5]oct-6-en-8-yl)-4-fluoro-phenyl]-amide] displayed an IC50 of 52 nM.
